Test results reported in the supplement of paper PMC6045584.
± gives the standard deviation of the averaged measurements.

Assays:
[1] = compound: Cc1nc(Nc2ncc(C(=O)Nc3c(C)cccc3Cl)s2)cc(N2CCN(CCO)CC2)n1 [DASATINIB]; assay: surviving fraction relative to DMSO-only wells; higher = less growth inhibition; settings: exposure time: 5 days
Outline: (§1)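 Five days of continuous inhibitor exposure, at 0.5, 1, 5, 10, 50, 100, 500 and 1000 nM, followed a 24-hour period after log-phase tumour cell lines were seeded at 250–500 cells per well in 384-well plates. Surviving fraction was derived from CellTiter-Glo luminescence relative to the median of DMSO-only wells. Plates were read after 10 minutes at room temperature, and lines screened three times were kept only if replicate Pearson r >0.7 and median Z' >0.3.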

[2] = compound: T1, CN1CCN(c2nc(C3=C(c4c[nH]c5ccccc45)C(=O)NC3=O)c3ccccc3n2)CC1 [SOTRASTAURIN/AEB071]; assay: as above; settings: exposure time: 5 days
Outline: as §1

[3] = compound: CCn1c(C(=O)N(C2CC2)C2CC2)cc2c3c(ncn3C)c(Nc3cc(C)n(C)n3)nc21; assay: area under dose-response curve of surviving fraction (unscaled, Aref=0) (surviving fraction x log10(nM)); higher = more resistant; settings: exposure time: 5 days; dose range 0.5-1000 nM
Outline: (§2)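 Surviving fractions were fitted by 3-parameter logistic regression in the drc R package to give dose-response survival curves. They came from tumour cell lines treated for five days with eight inhibitor concentrations from 0.5 to 1000 nM and read by CellTiter-Glo luminescence against DMSO-only wells. The area under the curve is the unscaled activity area. It was calculated over log10 dose with Aref = 0.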

[4] = compound: CNCc1ccc(-c2[nH]c3cc(F)cc4c3c2CCNC4=O)cc1; assay: as above; settings: exposure time: 5 days; dose range 0.5-1000 nM
Outline: as §2

[5] = compound: C[C@]12CC[C@H](O)CC1=CC[C@@H]1[C@@H]2CC[C@]2(C)C(c3cccnc3)=CC[C@@H]12 [ABIRATERONE]; assay: as above; settings: exposure time: 5 days; dose range 0.5-1000 nM
Outline: as §2

[6] = compound: T1, SOTRASTAURIN/AEB071; assay: as above; settings: exposure time: 5 days; dose range 0.5-1000 nM
Outline: as §2

Test System	surviving fraction ([1]; 0.5 nM)	surviving fraction ([1]; 1 nM)	surviving fraction ([1]; 5 nM)	surviving fraction ([1]; 10 nM)	surviving fraction ([1]; 50 nM)	surviving fraction ([1]; 100 nM)	surviving fraction ([1]; 500 nM)	surviving fraction ([1]; 1000 nM)	surviving fraction ([2]; 0.5 nM)	surviving fraction ([2]; 1 nM)	surviving fraction ([2]; 5 nM)	surviving fraction ([2]; 10 nM)	surviving fraction ([2]; 50 nM)	surviving fraction ([2]; 100 nM)	surviving fraction ([2]; 500 nM)	surviving fraction ([2]; 1000 nM)	area under dose-response curve [3]	area under dose-response curve [4]	area under dose-response curve [5]	area under dose-response curve [6]
HCC78 LUNG	0.662 ± 0.064	0.783 ± 0.025	0.849 ± 0.084	0.914 ± 0.068	0.569 ± 0.15	0.235 ± 0.019	0.175 ± 0.056	0.176 ± 0.045	1.08 ± 0.35	0.934 ± 0.14	0.96 ± 0.073	1 ± 0.12	1.16 ± 0.18	1.48 ± 0.17	1.11 ± 0.059	1.05 ± 0.058	2.67	3.18	3.32	3.62
HCC1395 BREAST	0.813 ± 0.065	0.961 ± 0.1	0.891 ± 0.068	0.902 ± 0.044	0.763 ± 0.093	0.704 ± 0.091	0.583 ± 0.067	0.591 ± 0.017	0.996 ± 0.018	1.09 ± 0.058	1.16 ± 0.12	1.12 ± 0.15	1.19 ± 0.13	1.1 ± 0.1	0.885 ± 0.14	0.969 ± 0.075	3.71	2.92	3.7	3.61
HCC1806 BREAST	0.682 ± 0.085	0.639 ± 0.021	0.71 ± 0.059	0.639 ± 0.075	0.446 ± 0.017	0.219 ± 0.038	0.167 ± 0.015	0.149 ± 0.021	0.958 ± 0.19	0.944 ± 0.041	1.17 ± 0.078	1.08 ± 0.017	0.887 ± 0.026	1.01 ± 0.096	0.9673 ± 0.0067	0.908 ± 0.066	3.46	2.77	3.71	3.26
HCT15 LARGE INTESTINE	0.827 ± 0.034	0.814 ± 0.04	0.789 ± 0.06	0.73 ± 0.094	0.702 ± 0.044	0.56 ± 0.034	0.363 ± 0.083	0.326 ± 0.046	1.03 ± 0.12	1.07 ± 0.024	1.05 ± 0.053	1.02 ± 0.081	1.05 ± 0.054	1.05 ± 0.061	1.02 ± 0.079	1.05 ± 0.069	3.26	3.36	3.64	3.44
HELA CERVIX	0.937 ± 0.085	0.934 ± 0.057	0.948 ± 0.037	0.909 ± 0.029	1.02 ± 0.029	1.04 ± 0.011	1.04 ± 0.061	1.06 ± 0.037	1.03 ± 0.029	1.05 ± 0.052	1.05 ± 0.072	0.974 ± 0.043	1.14 ± 0.15	1.15 ± 0.063	1.11 ± 0.057	1.12 ± 0.092	3.32	3.62	3.73	3.56
HOS BONE	0.906 ± 0.018	0.908 ± 0.022	0.821 ± 0.015	0.763 ± 0.048	0.693 ± 0.0078	0.604 ± 0.015	0.382 ± 0.035	0.358 ± 0.014	1.021 ± 0.0061	1.01 ± 0.014	1.04 ± 0.023	1.014 ± 0.008	1.05 ± 0.014	1.03 ± 0.013	1.02 ± 0.018	0.974 ± 0.016	3.32	3.35	3.5	3.38
HOSMNG BONE	0.979 ± 0.032	0.971 ± 0.05	0.868 ± 0.021	0.741 ± 0.027	0.603 ± 0.021	0.457 ± 0.016	0.36 ± 0.019	0.372 ± 0.0076	0.939 ± 0.079	0.932 ± 0.025	0.994 ± 0.035	0.947 ± 0.047	1.05 ± 0.12	0.963 ± 0.028	1.11 ± 0.061	1.01 ± 0.05	3.39	3.01	3.41	3.24
HSSYII SYNOVIAL	0.781 ± 0.031	0.791 ± 0.034	0.765 ± 0.029	0.743 ± 0.022	0.634 ± 0.0095	0.531 ± 0.047	0.489 ± 0.056	0.501 ± 0.037	0.909 ± 0.02	0.985 ± 0.084	0.984 ± 0.022	0.98 ± 0.02	0.87 ± 0.069	0.83 ± 0.065	0.833 ± 0.015	0.839 ± 0.039	3.02	2.44	3.22	2.99
HT1080 SOFT TISSUE	0.975 ± 0.032	0.947 ± 0.043	0.918 ± 0.02	0.841 ± 0.046	0.61 ± 0.017	0.541 ± 0.017	0.428 ± 0.023	0.427 ± 0.01	1.07 ± 0.028	1.08 ± 0.024	1.053 ± 0.0085	1.05 ± 0.021	1.03 ± 0.025	1.04 ± 0.016	1.07 ± 0.019	1.16 ± 0.063	3.3	3.02	3.37	3.53
JIMT1 BREAST	0.859 ± 0.034	0.844 ± 0.033	0.802 ± 0.034	0.68 ± 0.024	0.394 ± 0.041	0.182 ± 0.018	0.0683 ± 0.012	0.0518 ± 0.0019	0.958 ± 0.039	0.941 ± 0.017	0.98 ± 0.033	0.96 ± 0.02	0.975 ± 0.038	0.956 ± 0.047	0.987 ± 0.037	0.992 ± 0.022	3.27	3.03	3.3	3.24
JURKAT HAEMATOPOIETIC AND LYMPHOID TISSUE	1.033 ± 0.0046	0.984 ± 0.034	0.927 ± 0.011	0.892 ± 0.011	0.886 ± 0.043	0.785 ± 0.024	0.614 ± 0.028	0.432 ± 0.016	1.08 ± 0.047	1.13 ± 0.017	1.09 ± 0.042	1.08 ± 0.041	1.06 ± 0.012	1.03 ± 0.022	1.06 ± 0.044	1.05 ± 0.032	3.54	3.28	3.49	3.54
KPD BONE	0.909 ± 0.063	0.851 ± 0.053	0.781 ± 0.044	0.73 ± 0.0072	0.579 ± 0.039	0.481 ± 0.03	0.39 ± 0.016	0.336 ± 0.025	0.967 ± 0.054	0.974 ± 0.034	1.08 ± 0.062	1.04 ± 0.032	1.01 ± 0.031	1.08 ± 0.019	1.04 ± 0.043	1.07 ± 0.059	3.28	3.18	3.4	3.41
LM7 BONE	0.732 ± 0.032	0.694 ± 0.031	0.616 ± 0.044	0.576 ± 0.028	0.443 ± 0.036	0.338 ± 0.014	0.206 ± 0.031	0.211 ± 0.008	1.03 ± 0.077	0.945 ± 0.024	1.01 ± 0.075	1.05 ± 0.062	0.889 ± 0.051	0.907 ± 0.049	0.803 ± 0.035	0.811 ± 0.12	3.31	2.67	3.33	3.08
